± gives the expanded uncertainty stated by the source.
How the values were obtained:
[1] = 101.33 kPa, Liquid, Vibrating tube method
[2] = molar heat capacity at constant pressure; details: 101.33 kPa, Liquid, Small sample (50 mg) DSC

Clc1ccccc1Br [1-bromo-2-chlorobenzene]
Details | mass density [kg/m3] | molar heat capacity at constant pressure [J/K/mol]
[1], 288.15 K | 1659.67 ± 1.1 | –
[1], 298.15 K | 1646.32 ± 1.1 | –
[1], 308.15 K | 1633.01 ± 1.1 | –
[1], 318.15 K | 1619.69 ± 1 | –
[1], 328.15 K | 1606.36 ± 1 | –
[1], 338.15 K | 1593.03 ± 1 | –
[2], 283.15 K | – | 172.25 ± 2.7
[2], 285.15 K | – | 172.59 ± 2.7
[2], 287.15 K | – | 172.94 ± 2.7
[2], 289.15 K | – | 173.29 ± 2.7
[2], 291.15 K | – | 173.65 ± 2.7
[2], 293.15 K | – | 174.02 ± 2.7
[2], 295.15 K | – | 174.39 ± 2.7
[2], 297.15 K | – | 174.78 ± 2.7
[2], 299.15 K | – | 175.17 ± 2.7
[2], 301.15 K | – | 175.56 ± 2.7
[2], 303.15 K | – | 175.96 ± 2.7
[2], 305.15 K | – | 176.36 ± 2.7
[2], 307.15 K | – | 176.77 ± 2.7
[2], 309.15 K | – | 177.19 ± 2.8
[2], 311.15 K | – | 177.61 ± 2.8
[2], 313.15 K | – | 178.03 ± 2.8
[2], 315.15 K | – | 178.45 ± 2.8
[2], 317.15 K | – | 178.88 ± 2.8
[2], 319.15 K | – | 179.31 ± 2.8
[2], 321.15 K | – | 179.74 ± 2.8
[2], 323.15 K | – | 180.17 ± 2.8
[2], 325.15 K | – | 180.6 ± 2.8
[2], 327.15 K | – | 181.03 ± 2.8
[2], 329.15 K | – | 181.47 ± 2.8
[2], 331.15 K | – | 181.9 ± 2.8
[2], 333.15 K | – | 182.33 ± 2.8
[2], 335.15 K | – | 182.77 ± 2.8
[2], 337.15 K | – | 183.2 ± 2.8
[2], 339.15 K | – | 183.62 ± 2.8
[2], 341.15 K | – | 184.05 ± 2.9
[2], 343.15 K | – | 184.47 ± 2.9
[2], 345.15 K | – | 184.89 ± 2.9
[2], 347.15 K | – | 185.31 ± 2.9
[2], 349.15 K | – | 185.72 ± 2.9
[2], 351.15 K | – | 186.13 ± 2.9
[2], 353.15 K | – | 186.53 ± 2.9

Brc1ccccc1Br [1,2-dibromobenzene]
Details | mass density [kg/m3] | molar heat capacity at constant pressure [J/K/mol]
[1], 288.15 K | 1987.92 ± 1.6 | –
[1], 298.15 K | 1972.75 ± 1.5 | –
[1], 308.15 K | 1957.62 ± 1.5 | –
[1], 318.15 K | 1942.51 ± 1.5 | –
[1], 328.15 K | 1927.42 ± 1.5 | –
[1], 338.15 K | 1912.34 ± 1.4 | –
[2], 283.15 K | – | 177.44 ± 2.8
[2], 285.15 K | – | 177.83 ± 2.8
[2], 287.15 K | – | 178.12 ± 2.8
[2], 289.15 K | – | 178.43 ± 2.8
[2], 291.15 K | – | 178.75 ± 2.8
[2], 293.15 K | – | 179.08 ± 2.8
[2], 295.15 K | – | 179.42 ± 2.8
[2], 297.15 K | – | 179.76 ± 2.8
[2], 299.15 K | – | 180.12 ± 2.8
[2], 301.15 K | – | 180.48 ± 2.8
[2], 303.15 K | – | 180.85 ± 2.8
[2], 305.15 K | – | 181.22 ± 2.8
[2], 307.15 K | – | 181.6 ± 2.8
[2], 309.15 K | – | 181.99 ± 2.8
[2], 311.15 K | – | 182.38 ± 2.8
[2], 313.15 K | – | 182.77 ± 2.8
[2], 315.15 K | – | 183.17 ± 2.8
[2], 317.15 K | – | 183.57 ± 2.8
[2], 319.15 K | – | 183.97 ± 2.9
[2], 321.15 K | – | 184.38 ± 2.9
[2], 323.15 K | – | 184.79 ± 2.9
[2], 325.15 K | – | 185.19 ± 2.9
[2], 327.15 K | – | 185.6 ± 2.9
[2], 329.15 K | – | 186.01 ± 2.9
[2], 331.15 K | – | 186.42 ± 2.9
[2], 333.15 K | – | 186.82 ± 2.9
[2], 335.15 K | – | 187.23 ± 2.9
[2], 337.15 K | – | 187.63 ± 2.9
[2], 339.15 K | – | 188.03 ± 2.9
[2], 341.15 K | – | 188.42 ± 2.9
[2], 343.15 K | – | 188.82 ± 2.9
[2], 345.15 K | – | 189.2 ± 2.9
[2], 347.15 K | – | 189.58 ± 2.9
[2], 349.15 K | – | 189.96 ± 2.9
[2], 351.15 K | – | 190.33 ± 3
[2], 353.15 K | – | 190.69 ± 3

Clc1ccc(Cl)cc1 [1,4-dichlorobenzene]
[2]
Details | molar heat capacity at constant pressure [J/K/mol]
327.15 K | 177.09 ± 2.7
329.15 K | 177.53 ± 2.8
331.15 K | 177.98 ± 2.8
333.15 K | 178.43 ± 2.8
335.15 K | 178.89 ± 2.8
337.15 K | 179.35 ± 2.8
339.15 K | 179.81 ± 2.8
341.15 K | 180.28 ± 2.8
343.15 K | 180.76 ± 2.8
345.15 K | 181.24 ± 2.8
347.15 K | 181.73 ± 2.8
349.15 K | 182.22 ± 2.8
351.15 K | 182.71 ± 2.8
353.15 K | 183.21 ± 2.8

Brc1cccc(Br)c1 [1,3-dibromobenzene]
Details | mass density [kg/m3] | molar heat capacity at constant pressure [J/K/mol]
[1], 288.15 K | 1964.14 ± 1.5 | –
[1], 298.15 K | 1948.87 ± 1.5 | –
[1], 308.15 K | 1933.61 ± 1.5 | –
[1], 318.15 K | 1918.3 ± 1.4 | –
[1], 328.15 K | 1903.13 ± 1.4 | –
[1], 338.15 K | 1887.88 ± 1.4 | –
[2], 283.15 K | – | 176.01 ± 2.7
[2], 285.15 K | – | 176.4 ± 2.7
[2], 287.15 K | – | 176.71 ± 2.7
[2], 289.15 K | – | 177.04 ± 2.7
[2], 291.15 K | – | 177.38 ± 2.8
[2], 293.15 K | – | 177.72 ± 2.8
[2], 295.15 K | – | 178.08 ± 2.8
[2], 297.15 K | – | 178.44 ± 2.8
[2], 299.15 K | – | 178.81 ± 2.8
[2], 301.15 K | – | 179.19 ± 2.8
[2], 303.15 K | – | 179.58 ± 2.8
[2], 305.15 K | – | 179.97 ± 2.8
[2], 307.15 K | – | 180.37 ± 2.8
[2], 309.15 K | – | 180.78 ± 2.8
[2], 311.15 K | – | 181.19 ± 2.8
[2], 313.15 K | – | 181.6 ± 2.8
[2], 315.15 K | – | 182.01 ± 2.8
[2], 317.15 K | – | 182.43 ± 2.8
[2], 319.15 K | – | 182.85 ± 2.8
[2], 321.15 K | – | 183.28 ± 2.8
[2], 323.15 K | – | 183.7 ± 2.9
[2], 325.15 K | – | 184.13 ± 2.9
[2], 327.15 K | – | 184.55 ± 2.9
[2], 329.15 K | – | 184.98 ± 2.9
[2], 331.15 K | – | 185.4 ± 2.9
[2], 333.15 K | – | 185.83 ± 2.9
[2], 335.15 K | – | 186.25 ± 2.9
[2], 337.15 K | – | 186.67 ± 2.9
[2], 339.15 K | – | 187.08 ± 2.9
[2], 341.15 K | – | 187.49 ± 2.9
[2], 343.15 K | – | 187.9 ± 2.9
[2], 345.15 K | – | 188.3 ± 2.9
[2], 347.15 K | – | 188.7 ± 2.9
[2], 349.15 K | – | 189.09 ± 2.9
[2], 351.15 K | – | 189.47 ± 2.9
[2], 353.15 K | – | 189.85 ± 2.9

Clc1ccc(Cl)c(Cl)c1Cl [1,2,3,4-tetrachlorobenzene]
[2]
Details | molar heat capacity at constant pressure [J/K/mol]
327.15 K | 225.17 ± 3.5
329.15 K | 225.49 ± 3.5
331.15 K | 225.82 ± 3.5
333.15 K | 226.14 ± 3.5
335.15 K | 226.47 ± 3.5
337.15 K | 226.8 ± 3.5
339.15 K | 227.13 ± 3.5
341.15 K | 227.46 ± 3.5
343.15 K | 227.8 ± 3.5
345.15 K | 228.13 ± 3.5
347.15 K | 228.47 ± 3.5
349.15 K | 228.81 ± 3.5
351.15 K | 229.16 ± 3.5
353.15 K | 229.5 ± 3.6

Reference: the NIST ThermoML archive (doi:10.1021/je600573w)
